Test results taken from ChEMBL document CHEMBL3991601, “The target landscape of clinical kinase drugs” (Science, 2017).
Active and inactive are the calls of the source.

Tests used:
[1] = target: T1, Acyl-CoA dehydrogenase family member 10 (Homo sapiens, UniProt Q6JQN1)
T1 sequence (Q6JQN1 whole entry): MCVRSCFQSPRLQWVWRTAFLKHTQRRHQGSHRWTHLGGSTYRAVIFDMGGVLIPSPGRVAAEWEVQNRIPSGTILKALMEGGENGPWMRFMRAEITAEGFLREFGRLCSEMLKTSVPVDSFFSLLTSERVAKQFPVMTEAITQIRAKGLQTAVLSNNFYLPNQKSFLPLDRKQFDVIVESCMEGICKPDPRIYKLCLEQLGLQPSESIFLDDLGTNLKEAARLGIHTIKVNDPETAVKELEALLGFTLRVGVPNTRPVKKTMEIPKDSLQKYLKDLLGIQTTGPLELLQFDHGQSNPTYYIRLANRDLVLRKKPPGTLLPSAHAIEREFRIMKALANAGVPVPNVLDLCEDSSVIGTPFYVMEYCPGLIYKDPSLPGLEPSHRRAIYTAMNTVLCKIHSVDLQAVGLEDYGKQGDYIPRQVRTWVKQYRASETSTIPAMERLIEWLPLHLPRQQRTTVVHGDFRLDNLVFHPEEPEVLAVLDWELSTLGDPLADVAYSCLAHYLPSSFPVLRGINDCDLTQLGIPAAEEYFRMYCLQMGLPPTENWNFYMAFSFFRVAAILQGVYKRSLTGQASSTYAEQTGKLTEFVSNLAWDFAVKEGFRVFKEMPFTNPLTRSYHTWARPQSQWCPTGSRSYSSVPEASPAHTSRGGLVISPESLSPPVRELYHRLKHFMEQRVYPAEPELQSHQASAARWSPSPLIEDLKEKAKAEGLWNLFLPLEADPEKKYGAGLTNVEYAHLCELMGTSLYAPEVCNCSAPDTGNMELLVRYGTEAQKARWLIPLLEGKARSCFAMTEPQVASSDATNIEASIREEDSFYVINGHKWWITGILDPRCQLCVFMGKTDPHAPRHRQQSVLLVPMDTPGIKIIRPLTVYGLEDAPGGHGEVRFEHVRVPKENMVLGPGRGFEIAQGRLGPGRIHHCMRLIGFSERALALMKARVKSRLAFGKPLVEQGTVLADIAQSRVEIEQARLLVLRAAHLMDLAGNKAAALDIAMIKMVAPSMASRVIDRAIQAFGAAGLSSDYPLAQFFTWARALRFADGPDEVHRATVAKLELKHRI

[2] = target: Bone morphogenetic protein receptor type-1B (Homo sapiens, UniProt O00238)
[3] = target: ATP-dependent RNA helicase DDX3X (Homo sapiens, UniProt O00571)
[4] = target: DnaJ homolog subfamily A member 1 (Homo sapiens, UniProt P31689)
Ephrin type-B receptor 6 = target: T2, Ephrin type-B receptor 6 (Homo sapiens, UniProt O15197)
T2 sequence (O15197 whole entry): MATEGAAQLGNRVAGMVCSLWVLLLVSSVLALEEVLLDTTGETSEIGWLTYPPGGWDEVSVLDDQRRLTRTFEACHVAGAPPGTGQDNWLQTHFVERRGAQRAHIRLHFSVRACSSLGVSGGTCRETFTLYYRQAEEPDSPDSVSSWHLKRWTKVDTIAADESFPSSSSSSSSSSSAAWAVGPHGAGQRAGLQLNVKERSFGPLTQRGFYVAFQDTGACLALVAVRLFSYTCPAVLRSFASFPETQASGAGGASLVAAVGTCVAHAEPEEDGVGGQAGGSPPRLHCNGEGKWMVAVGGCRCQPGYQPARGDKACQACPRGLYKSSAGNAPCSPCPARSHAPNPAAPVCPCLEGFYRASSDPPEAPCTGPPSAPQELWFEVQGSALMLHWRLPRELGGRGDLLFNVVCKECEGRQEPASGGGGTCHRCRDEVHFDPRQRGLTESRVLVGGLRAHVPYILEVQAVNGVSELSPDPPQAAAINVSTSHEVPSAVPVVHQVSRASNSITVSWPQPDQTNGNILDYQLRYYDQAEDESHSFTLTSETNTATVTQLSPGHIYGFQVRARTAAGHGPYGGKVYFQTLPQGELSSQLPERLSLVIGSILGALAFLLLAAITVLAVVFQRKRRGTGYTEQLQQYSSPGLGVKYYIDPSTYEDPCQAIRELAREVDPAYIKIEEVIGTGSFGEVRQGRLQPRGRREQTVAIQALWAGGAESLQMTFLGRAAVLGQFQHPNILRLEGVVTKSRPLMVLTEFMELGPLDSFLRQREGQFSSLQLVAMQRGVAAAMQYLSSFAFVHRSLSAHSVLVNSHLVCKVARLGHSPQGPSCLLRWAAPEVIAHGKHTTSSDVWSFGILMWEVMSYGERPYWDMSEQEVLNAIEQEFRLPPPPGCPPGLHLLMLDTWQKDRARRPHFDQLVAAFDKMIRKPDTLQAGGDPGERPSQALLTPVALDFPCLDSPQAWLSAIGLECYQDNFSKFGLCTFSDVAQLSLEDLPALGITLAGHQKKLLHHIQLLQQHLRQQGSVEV

[5] = target: PAS domain-containing serine/threonine-protein kinase (Homo sapiens, UniProt Q96RG2)
[6] = target: Proto-oncogene tyrosine-protein kinase receptor Ret (Homo sapiens, UniProt P07949)
TGF-beta receptor type-2 = TGF-beta receptor type-2 (Homo sapiens, UniProt P37173)
Note: in the data inactive means no Kd found up to 30 µM.

ATP-dependent RNA helicase DDX3X, sequence (O00571 whole entry): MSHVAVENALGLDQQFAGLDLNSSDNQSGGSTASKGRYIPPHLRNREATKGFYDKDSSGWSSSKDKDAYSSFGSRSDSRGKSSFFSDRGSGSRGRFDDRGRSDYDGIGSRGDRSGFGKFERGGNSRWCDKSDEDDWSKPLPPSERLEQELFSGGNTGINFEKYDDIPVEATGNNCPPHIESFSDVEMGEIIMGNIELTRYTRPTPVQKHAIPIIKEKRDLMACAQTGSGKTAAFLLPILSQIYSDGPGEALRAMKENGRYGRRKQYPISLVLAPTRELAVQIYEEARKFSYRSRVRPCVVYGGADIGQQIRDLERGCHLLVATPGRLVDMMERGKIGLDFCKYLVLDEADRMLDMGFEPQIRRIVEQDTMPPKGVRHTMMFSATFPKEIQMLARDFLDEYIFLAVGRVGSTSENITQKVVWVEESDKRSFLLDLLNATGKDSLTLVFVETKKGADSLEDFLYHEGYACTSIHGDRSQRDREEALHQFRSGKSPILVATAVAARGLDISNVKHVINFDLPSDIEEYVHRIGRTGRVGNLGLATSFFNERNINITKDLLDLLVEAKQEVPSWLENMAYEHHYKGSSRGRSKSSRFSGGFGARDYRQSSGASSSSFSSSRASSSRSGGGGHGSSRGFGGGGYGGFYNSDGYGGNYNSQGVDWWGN
Proto-oncogene tyrosine-protein kinase receptor Ret, sequence (P07949 whole entry): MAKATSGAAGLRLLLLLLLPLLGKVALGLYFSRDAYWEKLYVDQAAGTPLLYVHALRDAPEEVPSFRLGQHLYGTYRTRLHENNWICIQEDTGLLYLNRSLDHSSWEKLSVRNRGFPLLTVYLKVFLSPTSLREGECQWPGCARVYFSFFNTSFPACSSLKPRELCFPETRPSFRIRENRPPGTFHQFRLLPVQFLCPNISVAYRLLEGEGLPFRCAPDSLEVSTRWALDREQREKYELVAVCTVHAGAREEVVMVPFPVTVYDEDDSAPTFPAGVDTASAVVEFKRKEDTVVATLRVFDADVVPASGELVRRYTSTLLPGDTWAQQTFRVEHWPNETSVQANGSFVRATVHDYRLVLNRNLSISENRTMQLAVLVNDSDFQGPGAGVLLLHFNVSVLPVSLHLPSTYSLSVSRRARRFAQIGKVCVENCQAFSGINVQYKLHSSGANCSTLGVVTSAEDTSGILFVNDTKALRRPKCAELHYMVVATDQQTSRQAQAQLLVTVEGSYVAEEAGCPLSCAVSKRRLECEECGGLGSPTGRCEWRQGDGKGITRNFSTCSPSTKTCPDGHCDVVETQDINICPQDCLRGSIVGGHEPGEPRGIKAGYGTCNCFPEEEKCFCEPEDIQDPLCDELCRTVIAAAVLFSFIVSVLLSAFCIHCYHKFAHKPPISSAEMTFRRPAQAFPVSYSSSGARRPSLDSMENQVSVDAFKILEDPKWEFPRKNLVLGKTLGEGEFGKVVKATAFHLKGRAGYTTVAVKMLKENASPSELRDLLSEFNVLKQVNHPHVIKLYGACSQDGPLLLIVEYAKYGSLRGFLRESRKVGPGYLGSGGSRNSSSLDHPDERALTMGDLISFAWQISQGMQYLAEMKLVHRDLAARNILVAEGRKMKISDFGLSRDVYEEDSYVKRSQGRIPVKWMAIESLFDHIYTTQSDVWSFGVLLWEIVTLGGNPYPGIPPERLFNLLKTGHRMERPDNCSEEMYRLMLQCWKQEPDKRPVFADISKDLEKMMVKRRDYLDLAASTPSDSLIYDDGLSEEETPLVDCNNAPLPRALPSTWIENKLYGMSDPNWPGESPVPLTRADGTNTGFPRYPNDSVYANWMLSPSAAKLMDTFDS
TGF-beta receptor type-2, sequence (P37173 whole entry): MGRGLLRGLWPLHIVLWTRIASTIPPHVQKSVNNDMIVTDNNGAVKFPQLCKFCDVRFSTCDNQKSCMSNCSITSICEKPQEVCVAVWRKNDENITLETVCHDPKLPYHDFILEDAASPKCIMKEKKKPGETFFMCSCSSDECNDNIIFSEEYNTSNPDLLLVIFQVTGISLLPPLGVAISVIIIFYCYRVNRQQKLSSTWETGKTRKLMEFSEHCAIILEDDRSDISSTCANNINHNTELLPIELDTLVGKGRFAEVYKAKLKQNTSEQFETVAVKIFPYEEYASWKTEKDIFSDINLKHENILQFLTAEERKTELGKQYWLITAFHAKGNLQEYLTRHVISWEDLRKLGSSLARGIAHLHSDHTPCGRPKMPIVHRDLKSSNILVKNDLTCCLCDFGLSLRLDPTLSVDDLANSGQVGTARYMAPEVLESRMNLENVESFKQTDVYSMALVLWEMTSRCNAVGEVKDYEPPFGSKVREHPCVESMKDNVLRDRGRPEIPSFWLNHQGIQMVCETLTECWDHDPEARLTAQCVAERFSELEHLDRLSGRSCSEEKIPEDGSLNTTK
PAS domain-containing serine/threonine-protein kinase, sequence (Q96RG2 whole entry, the tested form may be a part): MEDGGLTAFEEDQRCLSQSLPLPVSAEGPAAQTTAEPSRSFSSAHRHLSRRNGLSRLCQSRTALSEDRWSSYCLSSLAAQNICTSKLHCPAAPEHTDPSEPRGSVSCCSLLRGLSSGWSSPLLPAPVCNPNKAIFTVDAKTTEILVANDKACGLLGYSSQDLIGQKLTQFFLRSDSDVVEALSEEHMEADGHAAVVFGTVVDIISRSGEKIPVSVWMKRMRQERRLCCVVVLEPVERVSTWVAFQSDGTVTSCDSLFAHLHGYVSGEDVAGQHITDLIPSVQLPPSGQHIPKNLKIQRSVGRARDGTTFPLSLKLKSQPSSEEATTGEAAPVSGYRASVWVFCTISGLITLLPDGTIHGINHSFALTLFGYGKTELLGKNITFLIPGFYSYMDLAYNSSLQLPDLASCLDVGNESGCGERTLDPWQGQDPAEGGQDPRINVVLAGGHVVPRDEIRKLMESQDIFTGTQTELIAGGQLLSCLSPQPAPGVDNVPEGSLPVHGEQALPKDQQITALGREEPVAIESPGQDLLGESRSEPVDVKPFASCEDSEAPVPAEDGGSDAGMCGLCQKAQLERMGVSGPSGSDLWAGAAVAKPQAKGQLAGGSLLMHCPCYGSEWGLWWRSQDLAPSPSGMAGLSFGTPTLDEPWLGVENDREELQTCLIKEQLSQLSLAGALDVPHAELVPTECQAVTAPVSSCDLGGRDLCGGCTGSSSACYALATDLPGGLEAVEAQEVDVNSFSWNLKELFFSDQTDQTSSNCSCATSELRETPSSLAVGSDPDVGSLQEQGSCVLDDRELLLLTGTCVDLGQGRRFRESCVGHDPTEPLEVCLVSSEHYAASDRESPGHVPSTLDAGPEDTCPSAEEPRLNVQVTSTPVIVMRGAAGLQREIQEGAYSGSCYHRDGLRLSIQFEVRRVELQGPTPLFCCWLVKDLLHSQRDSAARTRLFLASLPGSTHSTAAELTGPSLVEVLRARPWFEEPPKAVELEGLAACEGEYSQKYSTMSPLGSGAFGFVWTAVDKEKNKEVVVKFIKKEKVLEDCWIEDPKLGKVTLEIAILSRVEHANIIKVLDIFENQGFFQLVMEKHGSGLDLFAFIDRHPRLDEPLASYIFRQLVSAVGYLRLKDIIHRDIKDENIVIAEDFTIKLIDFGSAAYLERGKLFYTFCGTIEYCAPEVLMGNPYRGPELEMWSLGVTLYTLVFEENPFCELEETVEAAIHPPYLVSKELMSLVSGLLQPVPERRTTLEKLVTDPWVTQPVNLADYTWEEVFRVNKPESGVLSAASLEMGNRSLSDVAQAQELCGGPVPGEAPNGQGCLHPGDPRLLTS
DnaJ homolog subfamily A member 1, sequence (P31689 whole entry): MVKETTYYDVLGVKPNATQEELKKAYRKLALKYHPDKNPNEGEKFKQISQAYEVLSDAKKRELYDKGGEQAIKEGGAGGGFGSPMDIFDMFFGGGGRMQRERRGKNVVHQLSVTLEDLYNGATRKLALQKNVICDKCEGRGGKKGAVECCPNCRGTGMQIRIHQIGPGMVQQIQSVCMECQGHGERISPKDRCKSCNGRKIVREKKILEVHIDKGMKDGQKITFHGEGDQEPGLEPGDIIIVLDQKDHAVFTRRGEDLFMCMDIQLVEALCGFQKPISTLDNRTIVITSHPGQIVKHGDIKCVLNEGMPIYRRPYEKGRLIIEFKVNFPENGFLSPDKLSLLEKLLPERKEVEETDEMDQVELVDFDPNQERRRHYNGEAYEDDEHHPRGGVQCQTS
Bone morphogenetic protein receptor type-1B, sequence (O00238 whole entry): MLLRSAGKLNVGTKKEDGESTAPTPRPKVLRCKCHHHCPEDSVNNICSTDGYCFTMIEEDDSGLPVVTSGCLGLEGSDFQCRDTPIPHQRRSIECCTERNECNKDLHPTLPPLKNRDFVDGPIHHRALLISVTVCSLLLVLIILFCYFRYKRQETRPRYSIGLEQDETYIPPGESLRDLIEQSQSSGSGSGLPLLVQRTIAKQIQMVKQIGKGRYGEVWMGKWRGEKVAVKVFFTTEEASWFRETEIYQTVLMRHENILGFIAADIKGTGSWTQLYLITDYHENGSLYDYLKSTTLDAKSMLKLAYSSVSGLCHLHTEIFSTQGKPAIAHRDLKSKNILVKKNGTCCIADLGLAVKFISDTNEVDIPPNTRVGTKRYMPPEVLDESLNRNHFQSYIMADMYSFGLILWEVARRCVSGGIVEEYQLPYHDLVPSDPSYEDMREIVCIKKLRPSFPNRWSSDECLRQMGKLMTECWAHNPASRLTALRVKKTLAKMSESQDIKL

Structure (SMILES)	Kd [1]	Kd [2]	Kd [3]	Kd [4]	Kd (Ephrin type-B receptor 6)	Kd [5]	Kd [6]	Kd (TGF-beta receptor type-2)
CC(=O)c1cnc2ccc(-c3cc(Cl)c(O)c(Cl)c3)nc2c1N[C@H]1CC[C@H](CN(C)C)CC1	> 30 µM (inactive)	0.002 µM (active)	> 30 µM (inactive)	> 30 µM (inactive)	0.521 µM (active)	> 30 µM (inactive)	0.028 µM (active)	> 30 µM (inactive)
C=CC(=O)N1CCC[C@H](n2c(=O)n(-c3ccc(Oc4ccccc4)cc3)c3c(N)ncnc32)C1	> 30 µM (inactive)	> 30 µM (inactive)	> 30 µM (inactive)	> 30 µM (inactive)	> 30 µM (inactive)	> 30 µM (inactive)	> 30 µM (inactive)	> 30 µM (inactive)
COCc1c(-c2ccc(NC(=O)Nc3cc(C(F)(F)F)ccc3F)c(F)c2)c2c(N)ncnn2c1CN1CCOCC1	> 30 µM (inactive)	> 30 µM (inactive)	> 30 µM (inactive)	> 30 µM (inactive)	> 30 µM (inactive)	> 30 µM (inactive)	0.093 µM (active)	> 30 µM (inactive)
COc1cc(Nc2ncc3c(n2)-c2ccc(Cl)cc2C(c2c(F)cccc2OC)=NC3)ccc1C(=O)O [ALISERTIB]	–	> 30 µM (inactive)	> 30 µM (inactive)	–	> 30 µM (inactive)	> 30 µM (inactive)	–	> 30 µM (inactive)
NC(=O)Nc1cc(-c2cccc(F)c2)sc1C(=O)N[C@H]1CCCNC1 [AZD-7762]	> 30 µM (inactive)	> 30 µM (inactive)	> 30 µM (inactive)	> 30 µM (inactive)	–	> 30 µM (inactive)	0.023 µM (active)	> 30 µM (inactive)
Cc1cc(C(=O)NOCCO)c(Nc2ccc(I)cc2F)n(C)c1=O [AZD-8330]	–	> 30 µM (inactive)	> 30 µM (inactive)	> 30 µM (inactive)	> 30 µM (inactive)	> 30 µM (inactive)	> 30 µM (inactive)	> 30 µM (inactive)
COc1cc2ncnc(Oc3cccc(NC(=O)Nc4cc(C(C)(C)C(F)(F)F)on4)c3)c2cc1OC [CEP-32496]	> 30 µM (inactive)	> 30 µM (inactive)	> 30 µM (inactive)	> 30 µM (inactive)	> 30 µM (inactive)	> 30 µM (inactive)	–	> 30 µM (inactive)
C#Cc1cccc(Nc2ncnc3cc(OC)c(OCCCCCCC(=O)NO)cc23)c1 [CUDC-101]	> 30 µM (inactive)	> 30 µM (inactive)	> 30 µM (inactive)	> 30 µM (inactive)	> 30 µM (inactive)	> 30 µM (inactive)	–	> 30 µM (inactive)
CC(C)(C)c1nc(-c2cccc(NS(=O)(=O)c3c(F)cccc3F)c2F)c(-c2ccnc(N)n2)s1 [DABRAFENIB]	> 30 µM (inactive)	> 30 µM (inactive)	> 30 µM (inactive)	> 30 µM (inactive)	0.412 µM (active)	> 30 µM (inactive)	–	2.53 µM (active)
CCn1cc(-c2ccnc3[nH]c(-c4cccc(CN(C)C)c4)cc23)c(-c2ccc(NC(=O)N(C)C)cc2)n1 [GSK-1070916]	1.11 µM (active)	–	> 30 µM (inactive)	> 30 µM (inactive)	3.77 µM (active)	> 30 µM (inactive)	0.067 µM (active)	> 30 µM (inactive)
COc1ncc(-c2ccc3nccc(-c4ccnnc4)c3c2)cc1NS(=O)(=O)c1ccc(F)cc1F [OMIPALISIB]	–	> 30 µM (inactive)	> 30 µM (inactive)	> 30 µM (inactive)	> 30 µM (inactive)	> 30 µM (inactive)	> 30 µM (inactive)	> 30 µM (inactive)
Cc1[nH]c(/C=C2\C(=O)Nc3ccccc32)c(C)c1CCC(=O)O [ORANTINIB]	> 30 µM (inactive)	> 30 µM (inactive)	> 30 µM (inactive)	> 30 µM (inactive)	–	> 30 µM (inactive)	–	> 30 µM (inactive)
NC(=O)c1c(OCc2c(F)cc(Br)cc2F)nsc1NC(=O)NCCCCN1CCCC1 [OSI-632]	> 30 µM (inactive)	> 30 µM (inactive)	> 30 µM (inactive)	> 30 µM (inactive)	0.226 µM (active)	> 30 µM (inactive)	–	–
CCCCCCCCCCCCCCCCCCOP(=O)([O-])OC1CC[N+](C)(C)CC1 [PERIFOSINE]	> 30 µM (inactive)	> 30 µM (inactive)	> 30 µM (inactive)	> 30 µM (inactive)	> 30 µM (inactive)	> 30 µM (inactive)	> 30 µM (inactive)	–
CC(=O)NCC(=O)N1[C@@H]2CC[C@H]1c1ccc(Nc3ncc(C(F)(F)F)c(NC4CCC4)n3)cc12 [PF-03814735]	> 30 µM (inactive)	> 30 µM (inactive)	> 30 µM (inactive)	> 30 µM (inactive)	> 30 µM (inactive)	> 30 µM (inactive)	–	> 30 µM (inactive)
CNC(=O)c1cc(Oc2ccc(NC(=O)Nc3cc(C(C)(C)C)nn3-c3ccc4ncccc4c3)c(F)c2)ccn1 [REBASTINIB]	> 30 µM (inactive)	> 30 µM (inactive)	> 30 µM (inactive)	> 30 µM (inactive)	> 30 µM (inactive)	> 30 µM (inactive)	–	> 30 µM (inactive)
O=C(NOCCO)c1cc(CN2OCCCC2=O)c(F)c(F)c1Nc1ccc(I)cc1F [RO-4987655]	> 30 µM (inactive)	–	> 30 µM (inactive)	> 30 µM (inactive)	–	> 30 µM (inactive)	–	–
N#CC[C@H](C1CCCC1)n1cc(-c2ncnc3[nH]ccc23)cn1 [RUXOLITINIB]	> 30 µM (inactive)	–	> 30 µM (inactive)	> 30 µM (inactive)	–	> 30 µM (inactive)	–	–
CCS(=O)(=O)c1cccc(-c2cc(C(=O)NC3CCN(C)CC3)c(C)c3[nH]c4ncc(C)cc4c23)c1 [TAK-901]	–	> 30 µM (inactive)	> 30 µM (inactive)	> 30 µM (inactive)	0.451 µM	> 30 µM (inactive)	0.111 µM (active)	> 30 µM (inactive)
CC(C)c1cc(CNc2nc(Nc3cc(C4CC4)[nH]n3)cc(N3CCN(C)CC3)n2)on1 [XL-228]	–	–	> 30 µM (inactive)	> 30 µM (inactive)	0.026 µM (active)	> 30 µM (inactive)	0.009 µM (active)	> 30 µM (inactive)
C[C@@H](N)c1ccc(C(=O)Nc2ccnc3[nH]ccc23)cc1 [Y-39983]	–	> 30 µM (inactive)	> 30 µM (inactive)	> 30 µM (inactive)	> 30 µM (inactive)	> 30 µM (inactive)	> 30 µM (inactive)	> 30 µM (inactive)
CN1C/C=C/CCOc2cccc(c2)-c2ccnc(n2)Nc2cccc(c2)C1 [ZOTIRACICLIB]	–	> 30 µM (inactive)	> 30 µM (inactive)	> 30 µM (inactive)	> 30 µM (inactive)	> 30 µM (inactive)	21.9 µM	> 30 µM (inactive)
